Where two headings read alike, the source gives them in different places.
Key:
Type in all cases: cell-based
α2β1 = target: T1, α2β1 (Homo sapiens, UniProt P05556+P17301); experiment: Cell adhesion assay to assess specificity: α2-transfected K562 cells on collagen I
T1 construct: Marcinkiewicz (Temple University, Philadelphia, Pa.); host or cells: K562
Method: (§1) The ligands (3 μg/ml of collagen IV for […] or 3 μg/ml of collagen I for α2β1) for the test designed to assess the specificity of representative embodiments of the instant compounds for the α2β1 integrin were immobilized on 96-well flat microtiter plates (100 μl for each well) in PBS buffer solution overnight at 4° C. In the case of VCAM (3 μg/ml, for α4β1) and fibronectin (10 μg/ml, for α5β1), 20 mM acetic acid was used instead of PBS buffer solution. As those skilled in the art will recognize, VCAM is a known endothelial ligand for α4β1/VLA-4, and fibronectin is a known ligand for […]. In the case of α1β1 and α2β1, blocking was performed with 1% BSA in HBSS buffer solution containing Mg^2+ (but without Ca^2+) for 1 hour. In the case of α4β1 and α5β1, 1% BSA in HyQ HBSS buffer solution containing Ca^2+ and Mg^2+ was used. […] After centrifugation and washing with buffer solution containing 1% BSA, cells were re-suspended in same buffer solution (1×10^6 cells/ml) and incubated in the presence of a different concentration of inhibitors at room temperature for 15 minutes. Cells were added to the wells (100 μl/well) and incubated at 37° C. for 30 minutes. Unbound cells were washed out and bound cells were lysed by the addition of 0.5% Triton X-100.
(§2) The K562 cells expressing α5β1 integrin, Jurkat cells expressing α4β1, and K562 cells transfected with α1 and α2 integrins were provided by Dr. C. Marcinkiewicz (Temple University, Philadelphia, Pa.).
(§3) Plates were read using a Cytofluor 2350 fluorescence plate reader (Millipore, Bedford, Mass.) with a 485 nm (excitation) and 530 nm (emission).

α2β1 integrin = target: T2, α2β1 integrin (Homo sapiens, UniProt P05556+P17301); experiment: Platelet adhesion assay (human platelet adhesion to type I collagen)
T2 construct: endogenous in cells; host or cells: gel-filtered human platelets of a single donor
Method: The inhibitory strength of the compounds of the present disclosure was analyzed as against platelet adhesion to type I collagen. Ninety-six well flat bottom microtiter plates (Immulon 2, Dynatech Laboratories, Chantilly, Va.) were coated with collagen, purified human fibrinogen, or bovine serum albumin, each dissolved in 50 mM NaHCO3 buffer, pH 8.0, containing 150 mM NaCl as previously described. See Bennett J S, Chan C, Vilaire G, Mousa S A, DeGrado W F. Agonist-Activated αvβ3 on Platelets and Lymphocytes Binds to the Matrix Protein Osteopontin. J Biol Chem. 272, 8137-814) (1997). Unoccupied protein binding sites on the wells were blocked with 5 mg/ml bovine serum albumin dissolved in the same buffer. Human platelets were isolated from blood anticoagulated with 0.1 volume 3.8% sodium citrate by gel-filtration using a 4 mM HEPES buffer, pH 7.4, containing 135 mM NaCl, 2.7 mM KCl, 5.6 mM glucose, 3.3 mM NaH2PO4, 0.35 mg/ml bovine serum albumin and various concentrations of CaCl2 or MgCl2 according to the experiment. One hundred μl aliquots of the gel-filtered platelet suspension containing 1-2×10^8 platelets were added to the protein-coated wells in the absence or presence of a platelet agonist. Following an incubation for 30 min at 37° C. without agitation, the plates were washed 4 times with the Tris-buffered NaCl, containing 2 mM MgCl2, pH 7.4, and the number of adherent platelets measured using the colorimetric assay reported by Bellavite P, Andrioli G, Guzzo P, et al. A colorimetric method for the measurement of platelet adhesion in microtiter plates. Anal Biochem. 216, 444-450 (1994). Briefly, 150 μl of a 0.1 M citrate buffer, pH 5.4, containing 5 mM p-nitrophenyl phosphate and 0.1% Triton X-100 was added to the wells after washing. After an incubation for 60 min at room temperature in the absence of ambient light, color was developed by the addition of 100 μl of 2N NaOH and, using EL800 Universal Microplate Reader (Bio-Tek Instruments, Inc., Winooski, Vt.), read in microtiter plate reader at 405 nm.
The potencies of the compounds of the present disclosure were determined by testing the ability of a range of concentrations of each compound to inhibit human platelet adhesion to soluble collagen under static conditions. Owing to the fact that soluble collagen is a specific ligand for α2β1 integrin, this is an accepted method of assessing α2β1 inhibition on platelets.
IC50 values were determined by using the platelets of a single donor. In cases where multiple assays were performed, the reported results reflect the average IC50 value derived from the separate assays.

α4β1 = target: T3, α4β1 (Homo sapiens, UniProt P05556+P13612); experiment: Cell adhesion assay to assess specificity: Jurkat cells on VCAM
T3 construct: Jurkat cells expressing α4β1; Marcinkiewicz (Temple University, Philadelphia, Pa.); host or cells: Jurkat
Method: as §1, §2, §3

α1β1 = target: T4, α1β1 (Homo sapiens, UniProt P05556+P56199); experiment: Cell adhesion assay to assess specificity: α1-transfected K562 cells on collagen IV; details: read-out: % inhibition at 3 μM, α1β1
T4 construct: Marcinkiewicz (Temple University, Philadelphia, Pa.); host or cells: K562
Method: as §1, §2, §3

[1] = human platelet adhesion to type I (soluble, monomeric) collagen, static conditions, single donor, read-out: IC50
[2] = platelets on collagen I, read-out: IC50 (nM), α2β1, Platelet, Collagen I

T2 sequence (P17301 30-1181): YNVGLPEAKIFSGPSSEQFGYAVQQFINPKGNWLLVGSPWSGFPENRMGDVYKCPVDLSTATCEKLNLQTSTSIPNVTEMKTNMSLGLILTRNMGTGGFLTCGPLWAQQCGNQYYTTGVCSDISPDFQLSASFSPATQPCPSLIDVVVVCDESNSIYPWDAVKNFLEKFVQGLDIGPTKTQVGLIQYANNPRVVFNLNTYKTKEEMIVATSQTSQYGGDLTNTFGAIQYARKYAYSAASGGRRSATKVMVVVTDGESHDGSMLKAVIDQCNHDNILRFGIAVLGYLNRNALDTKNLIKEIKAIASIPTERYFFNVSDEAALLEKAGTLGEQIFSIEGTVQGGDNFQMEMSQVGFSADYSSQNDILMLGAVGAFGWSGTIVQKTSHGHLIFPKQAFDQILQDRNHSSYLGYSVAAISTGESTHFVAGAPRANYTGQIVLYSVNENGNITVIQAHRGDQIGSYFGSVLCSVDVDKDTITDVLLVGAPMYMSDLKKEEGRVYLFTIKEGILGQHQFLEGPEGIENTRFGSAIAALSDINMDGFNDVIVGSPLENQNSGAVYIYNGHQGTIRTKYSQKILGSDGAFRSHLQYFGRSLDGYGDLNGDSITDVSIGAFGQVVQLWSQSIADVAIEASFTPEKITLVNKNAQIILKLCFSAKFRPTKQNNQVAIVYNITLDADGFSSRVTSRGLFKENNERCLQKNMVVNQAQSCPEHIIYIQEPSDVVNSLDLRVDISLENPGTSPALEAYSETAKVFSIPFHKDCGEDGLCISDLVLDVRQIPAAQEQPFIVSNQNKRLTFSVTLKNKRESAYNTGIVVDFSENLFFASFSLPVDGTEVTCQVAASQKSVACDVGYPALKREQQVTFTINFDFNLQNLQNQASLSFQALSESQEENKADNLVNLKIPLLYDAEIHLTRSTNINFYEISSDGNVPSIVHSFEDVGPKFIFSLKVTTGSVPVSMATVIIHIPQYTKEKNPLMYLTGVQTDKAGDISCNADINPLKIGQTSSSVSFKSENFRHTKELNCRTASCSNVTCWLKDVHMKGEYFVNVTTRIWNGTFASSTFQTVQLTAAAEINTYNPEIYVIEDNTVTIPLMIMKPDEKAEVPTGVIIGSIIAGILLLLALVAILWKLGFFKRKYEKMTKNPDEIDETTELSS
T2 sequence (P05556 21-798): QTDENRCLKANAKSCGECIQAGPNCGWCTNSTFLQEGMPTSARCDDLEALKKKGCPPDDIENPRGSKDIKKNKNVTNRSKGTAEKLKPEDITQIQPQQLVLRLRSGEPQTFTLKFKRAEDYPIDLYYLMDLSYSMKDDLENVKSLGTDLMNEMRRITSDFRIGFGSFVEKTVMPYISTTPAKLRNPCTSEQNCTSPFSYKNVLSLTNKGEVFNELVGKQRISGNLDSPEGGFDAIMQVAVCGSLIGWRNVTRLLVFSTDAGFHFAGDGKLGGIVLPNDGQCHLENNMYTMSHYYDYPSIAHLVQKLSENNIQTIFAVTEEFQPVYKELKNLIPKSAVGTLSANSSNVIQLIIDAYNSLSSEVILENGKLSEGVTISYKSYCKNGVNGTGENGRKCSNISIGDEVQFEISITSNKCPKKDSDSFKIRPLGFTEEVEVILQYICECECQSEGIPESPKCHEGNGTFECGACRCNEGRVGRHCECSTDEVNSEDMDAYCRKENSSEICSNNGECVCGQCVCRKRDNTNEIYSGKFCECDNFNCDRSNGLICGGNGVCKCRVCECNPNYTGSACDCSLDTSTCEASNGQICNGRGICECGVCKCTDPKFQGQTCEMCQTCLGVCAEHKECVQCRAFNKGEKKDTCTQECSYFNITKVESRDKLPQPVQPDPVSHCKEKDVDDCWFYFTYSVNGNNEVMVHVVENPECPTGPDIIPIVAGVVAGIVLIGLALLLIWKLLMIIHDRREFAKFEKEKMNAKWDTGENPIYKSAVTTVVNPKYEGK
T3 sequence (P13612 34-1032): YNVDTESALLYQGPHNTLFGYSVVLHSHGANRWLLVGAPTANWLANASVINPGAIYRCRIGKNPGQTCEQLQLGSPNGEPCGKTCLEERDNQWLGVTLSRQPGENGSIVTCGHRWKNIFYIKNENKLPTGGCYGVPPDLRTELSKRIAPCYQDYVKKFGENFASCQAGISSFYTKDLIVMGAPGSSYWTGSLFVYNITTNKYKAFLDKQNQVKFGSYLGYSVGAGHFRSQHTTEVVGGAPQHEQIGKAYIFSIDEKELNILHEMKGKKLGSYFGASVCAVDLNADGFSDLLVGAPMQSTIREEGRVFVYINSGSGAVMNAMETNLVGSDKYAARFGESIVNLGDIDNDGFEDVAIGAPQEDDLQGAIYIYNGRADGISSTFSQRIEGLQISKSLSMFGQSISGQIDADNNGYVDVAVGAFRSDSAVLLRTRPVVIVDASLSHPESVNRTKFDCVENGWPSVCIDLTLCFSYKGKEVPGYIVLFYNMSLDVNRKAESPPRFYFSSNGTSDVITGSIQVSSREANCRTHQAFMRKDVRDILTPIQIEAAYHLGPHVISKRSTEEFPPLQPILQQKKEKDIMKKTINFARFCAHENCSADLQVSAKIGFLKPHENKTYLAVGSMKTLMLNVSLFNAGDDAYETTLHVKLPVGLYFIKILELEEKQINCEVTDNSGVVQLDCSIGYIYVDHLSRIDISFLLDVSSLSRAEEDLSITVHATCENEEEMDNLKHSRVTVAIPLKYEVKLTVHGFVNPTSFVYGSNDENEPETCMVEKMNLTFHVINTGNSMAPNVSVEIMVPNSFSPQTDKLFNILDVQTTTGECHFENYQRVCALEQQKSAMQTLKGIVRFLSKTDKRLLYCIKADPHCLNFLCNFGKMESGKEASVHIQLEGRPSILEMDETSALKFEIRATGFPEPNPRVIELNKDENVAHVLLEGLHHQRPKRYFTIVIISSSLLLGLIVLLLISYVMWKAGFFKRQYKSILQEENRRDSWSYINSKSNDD
T3 sequence (P05556 21-798): as the sequence (P05556 21-798) above
T1 sequence (P17301 30-1181): as the sequence (P17301 30-1181) above
T1 sequence (P05556 21-798): as the sequence (P05556 21-798) above
T4 sequence (P56199 29-1179): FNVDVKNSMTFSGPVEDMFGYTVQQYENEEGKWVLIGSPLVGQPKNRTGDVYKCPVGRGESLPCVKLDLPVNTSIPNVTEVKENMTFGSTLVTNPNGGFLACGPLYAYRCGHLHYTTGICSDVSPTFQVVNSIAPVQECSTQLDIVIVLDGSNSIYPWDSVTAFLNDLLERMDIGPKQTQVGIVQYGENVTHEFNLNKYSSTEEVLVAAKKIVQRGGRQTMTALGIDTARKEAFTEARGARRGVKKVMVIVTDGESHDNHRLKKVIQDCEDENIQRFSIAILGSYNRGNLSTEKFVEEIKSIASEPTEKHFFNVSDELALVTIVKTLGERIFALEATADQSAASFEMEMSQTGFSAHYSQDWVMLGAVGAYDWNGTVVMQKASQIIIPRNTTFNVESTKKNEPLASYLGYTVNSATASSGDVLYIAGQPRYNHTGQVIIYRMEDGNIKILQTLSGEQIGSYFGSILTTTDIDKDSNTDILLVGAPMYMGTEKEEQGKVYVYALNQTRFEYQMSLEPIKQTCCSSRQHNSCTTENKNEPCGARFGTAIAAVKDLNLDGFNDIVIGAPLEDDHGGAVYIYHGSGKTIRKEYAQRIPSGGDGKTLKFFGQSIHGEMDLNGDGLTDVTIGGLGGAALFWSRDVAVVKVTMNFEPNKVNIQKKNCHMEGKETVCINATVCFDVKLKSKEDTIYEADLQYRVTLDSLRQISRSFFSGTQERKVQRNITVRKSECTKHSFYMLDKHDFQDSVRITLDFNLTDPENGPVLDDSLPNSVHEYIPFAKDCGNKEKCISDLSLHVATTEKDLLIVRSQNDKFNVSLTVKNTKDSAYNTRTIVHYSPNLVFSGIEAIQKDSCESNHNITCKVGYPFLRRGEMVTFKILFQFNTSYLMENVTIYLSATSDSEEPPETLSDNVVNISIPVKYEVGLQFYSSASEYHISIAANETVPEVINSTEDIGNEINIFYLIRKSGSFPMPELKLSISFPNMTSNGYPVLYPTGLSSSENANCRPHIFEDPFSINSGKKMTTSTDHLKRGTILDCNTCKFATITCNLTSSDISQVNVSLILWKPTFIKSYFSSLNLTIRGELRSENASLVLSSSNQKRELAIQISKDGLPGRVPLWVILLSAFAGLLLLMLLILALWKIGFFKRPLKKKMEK
T4 sequence (P05556 21-798): as the sequence (P05556 21-798) above

| IC50 (α2β1) | IC50 (α2β1 integrin; [1]) | IC50 (α2β1 integrin; [2]) | IC50 (α4β1) | inhibition at 3 µM (α1β1) | SMILES |
| --- | --- | --- | --- | --- | --- |
| 89 nM | 29 nM | 29 nM | 740 nM | 26% | Cc1cc(C)cc(S(=O)(=O)N2CCC[C@H]2C(=O)N[C@@H](CNC(=O)NCc2ccccc2)C(=O)O)c1 [Compound 31, 3-(3-Benzyl-ureido)-2-{[1-(3,5-dimethyl-benzenesulfonyl)-pyrrolidine-2-carbonyl]-amino}-propionic acid] |
| 83 nM | 17 nM | 17 nM | 637 nM | 32% | O=C(NCc1ccccc1)NC[C@H](NC(=O)[C@@H]1CCCN1S(=O)(=O)c1cc(Cl)cc(Cl)c1)C(=O)O [Compound 48, 3-(3-Benzyl-ureido)-2-{[1-(3,5-dichloro-benzenesulfonyl)-pyrrolidine-2-carbonyl]-amino}-propionic acid] |
